What was measured:
Assay type in all cases: in vivo
[1] = test system: velvetleaf (Abutilon theophrasti); assay: Test A preemergence velvetleaf; conditions: 0 to 100 scale, 0 no effect, 100 complete control
Description: (§1) Seeds of plant species selected from barnyardgrass (Echinochloa crus-galli), kochia (Kochia scoparia), ragweed (common ragweed, Ambrosia elatior), ryegrass, Italian (Italian ryegrass, Lolium multiflorum), crabgrass, large (large crabgrass, Digitaria sanguinalis), foxtail, giant (giant foxtail, Setaria faberii), morningglory (Ipomoea spp.), pigweed (Amaranthus retroflexus), velvetleaf (Abutilon theophrasti), wheat (Triticum aestivum), and corn (Zea mays) were planted into a blend of loam soil and sand and treated preemergence with a directed soil spray using test chemicals formulated in a non-phytotoxic solvent mixture which included a surfactant.
(§2) At the same time, plants selected from these crop and weed species and also blackgrass (Alopecurus myosuroides), and galium (catchweed bedstraw, Galium aparine) were planted in pots containing the same blend of loam soil and sand and treated with postemergence applications of test chemicals formulated in the same manner. Plants ranged in height from 2 to 10 cm and were in the one- to two-leaf stage for the postemergence treatment. Treated plants and untreated controls were maintained in a greenhouse for approximately 10 d, after which time all treated plants were compared to untreated controls and visually evaluated for injury. Plant response ratings, summarized in Table A, are based on a 0 to 100 scale where 0 is no effect and 100 is complete control. A dash (-) response means no test result.

[2] = test system: crabgrass, large (large crabgrass, Digitaria sanguinalis); assay: Test A postemergence crabgrass, large; conditions: 0 to 100 scale, 0 is no effect, 100 is complete control
Description: as §1, §2

[3] = test system: morningglory (Ipomoea spp.); assay: Test A postemergence morningglory; conditions: 0 to 100 scale, 0 is no effect, 100 is complete control
Description: as §1, §2

[4] = test system: velvetleaf (Abutilon theophrasti); assay: Test A postemergence velvetleaf; conditions: 0 to 100 scale, 0 is no effect, 100 is complete control
Description: as §1, §2

[5] = test system: blackgrass (Alopecurus myosuroides); assay: Test C preemergence blackgrass; conditions: Table C, scale 0 to 100
Description: (§3) Seeds of plant species selected from blackgrass (Alopecurus myosuroides), ryegrass, Italian (Italian ryegrass, Lolium multiflorum), wheat (winter wheat, Triticum aestivum), galium (catchweed bedstraw, Galium aparine), corn (Zea mays), crabgrass, large (large crabgrass, Digitaria sanguinalis), foxtail, giant (giant foxtail, Setaria faberii), johnsongrass (Sorghum halepense), lambsquarters (Chenopodium album), morningglory (Ipomoea coccinea), yellow (yellow nutsedge, Cyperus esculentus), pigweed (Amaranthus retroflexus), ragweed (common ragweed, Ambrosia elatior), soybean (Glycine max), barnyardgrass (Echinochloa crus-galli), oilseed rape (Brassica napus), waterhemp (common waterhemp, Amaranthus rudis), and velvetleaf (Abutilon theophrasti) were planted into a blend of loam soil and sand and treated preemergence with test chemicals formulated in a non-phytotoxic solvent mixture which included a surfactant. At the same time, plants selected from these crop and weed species and also chickweed (common chickweed, Stellaria media), kochia (Kochia scoparia), and oat, wild (wild oat, Avena fatua) were planted in pots containing Sunshine Redi-Earth® planting medium comprising spaghnum peat moss, vermiculite, starter nutrients and dolomitic limestone and treated with postemergence applications of test chemicals formulated in the same manner. Plants ranged in height from 2 to 18 cm (1- to 4-leaf stage) for postemergence treatments. Treated plants and controls were maintained in a greenhouse for 13 to 15 days, after which time all species were compared to controls and visually evaluated. Plant response ratings, summarized in Table C, are based on a scale of 0 to 100 where 0 is no effect and 100 is complete control. A dash (-) response means no test result.

[6] = test system: galium (catchweed bedstraw, Galium aparine); assay: Test C preemergence galium; conditions: Table C, scale 0 to 100
Description: as §3

[7] = test system: crabgrass, large (large crabgrass, Digitaria sanguinalis); assay: Test C preemergence crabgrass, large; conditions: Table C, scale 0 to 100
Description: as §3

[8] = test system: pigweed (Amaranthus retroflexus); assay: Test C preemergence pigweed; conditions: Table C, scale 0 to 100
Description: as §3

soybean (Glycine max) = assay: Test C preemergence soybean; conditions: Table C, scale 0 to 100
Description: as §3

[9] = test system: barnyardgrass (Echinochloa crus-galli); assay: Test C preemergence barnyardgrass; conditions: Table C, scale 0 to 100
Description: as §3

[10] = test system: waterhemp (common waterhemp, Amaranthus rudis); assay: Test C preemergence waterhemp; conditions: Table C, scale 0 to 100
Description: as §3

[11] = test system: ryegrass, Italian (Italian ryegrass, Lolium multiflorum); assay: Test C postemergence ryegrass, Italian; conditions: Table C, scale 0 to 100
Description: as §3

[12] = test system: foxtail, giant (giant foxtail, Setaria faberii); assay: Test C postemergence foxtail, giant; conditions: Table C, scale 0 to 100
Description: as §3

[13] = test system: johnsongrass (Sorghum halepense); assay: Test C postemergence johnsongrass; conditions: Table C, scale 0 to 100
Description: as §3

[14] = test system: ragweed (common ragweed, Ambrosia elatior); assay: Test C postemergence ragweed; conditions: Table C, scale 0 to 100
Description: as §3

[15] = test system: barnyardgrass (Echinochloa crus-galli); assay: Test C postemergence barnyardgrass; conditions: Table C, scale 0 to 100
Description: as §3

[16] = test system: waterhemp (common waterhemp, Amaranthus rudis); assay: Test C postemergence waterhemp; conditions: Table C, scale 0 to 100
Description: as §3

[17] = test system: chickweed (common chickweed, Stellaria media); assay: Test C postemergence chickweed; conditions: Table C, scale 0 to 100
Description: as §3

kochia (Kochia scoparia) = assay: Test C postemergence kochia; conditions: Table C, scale 0 to 100
Description: as §3

O=C1NCCC(c2cccc(C(F)(F)F)c2)C1C(=O)Nc1ccccc1C(F)(F)F (stereo not drawn) [Compound 10, 2-oxo-N-[2-(trifluoromethyl)phenyl)-4-[3-(trifluoromethyl)phenyl]-3-piperidinecarboxamide]
Velvetleaf plant response rating ([1]; 125 g ai/ha): 0
Velvetleaf plant response rating ([1]; 500 g ai/ha): 0
Plant response rating, Crabgrass, Large ([2]; 125 g ai/ha): 60
Plant response rating, Crabgrass, Large ([2]; 500 g ai/ha): 80
Plant response rating, Morningglory ([3]; 125 g ai/ha): 0
Plant response rating, Morningglory ([3]; 500 g ai/ha): 0
Plant response rating, Velvetleaf ([4]; 125 g ai/ha): 0
Plant response rating, Velvetleaf ([4]; 500 g ai/ha): 0

O=C1NCCC(c2cccc(C(F)(F)F)c2)C1C(=O)Nc1cccc(F)c1F (stereo not drawn) [Compound 9, N-(2,3-difluorophenyl)-2-oxo-4-[3-(trifluoromethyl)phenyl]-3-piperidinecarboxamide]
Velvetleaf plant response rating ([1]; 125 g ai/ha): 0
Velvetleaf plant response rating ([1]; 500 g ai/ha): 0
Plant response rating, Crabgrass, Large ([2]; 125 g ai/ha): 80
Plant response rating, Crabgrass, Large ([2]; 500 g ai/ha): 90
Plant response rating, Morningglory ([3]; 125 g ai/ha): 0
Plant response rating, Morningglory ([3]; 500 g ai/ha): 40
Plant response rating, Velvetleaf ([4]; 125 g ai/ha): 0
Plant response rating, Velvetleaf ([4]; 500 g ai/ha): 0
Plant response rating ([5]; 31 g ai/ha): 50
Plant response rating ([5]; 62 g ai/ha): 40
Plant response rating ([5]; 125 g ai/ha): 80
Plant response rating ([5]; 250 g ai/ha): 90
Plant response rating ([6]; 31 g ai/ha): 0
Plant response rating ([6]; 62 g ai/ha): 0
Plant response rating ([6]; 125 g ai/ha): 0
Plant response rating ([6]; 250 g ai/ha): 75
Plant response rating ([7]; 31 g ai/ha): 95
Plant response rating ([7]; 62 g ai/ha): 95
Plant response rating ([7]; 125 g ai/ha): 98
Plant response rating ([7]; 250 g ai/ha): 98
Plant response rating ([8]; 31 g ai/ha): 5
Plant response rating ([8]; 62 g ai/ha): 0
Plant response rating ([8]; 125 g ai/ha): 0
Plant response rating ([8]; 250 g ai/ha): 10
Plant response rating (soybean (Glycine max); 31 g ai/ha): 0
Plant response rating (soybean (Glycine max); 62 g ai/ha): 0
Plant response rating (soybean (Glycine max); 125 g ai/ha): 0
Plant response rating (soybean (Glycine max); 250 g ai/ha): 0
Plant response rating ([9]; 31 g ai/ha): 75
Plant response rating ([9]; 62 g ai/ha): 90
Plant response rating ([9]; 125 g ai/ha): 95
Plant response rating ([9]; 250 g ai/ha): 95
Plant response rating ([10]; 31 g ai/ha): 15
Plant response rating ([10]; 62 g ai/ha): 0
Plant response rating ([10]; 125 g ai/ha): 20
Plant response rating ([10]; 250 g ai/ha): 0
Plant response rating ([11]; 31 g ai/ha): 0
Plant response rating ([11]; 62 g ai/ha): 0
Plant response rating ([11]; 125 g ai/ha): 0
Plant response rating ([11]; 250 g ai/ha): 0
Plant response rating ([12]; 31 g ai/ha): 0
Plant response rating ([12]; 62 g ai/ha): 5
Plant response rating ([12]; 125 g ai/ha): 35
Plant response rating ([12]; 250 g ai/ha): 85
Plant response rating ([13]; 31 g ai/ha): 0
Plant response rating ([13]; 62 g ai/ha): 0
Plant response rating ([13]; 125 g ai/ha): 0
Plant response rating ([13]; 250 g ai/ha): 5
Plant response rating ([14]; 31 g ai/ha): 0
Plant response rating ([14]; 62 g ai/ha): 0
Plant response rating ([14]; 125 g ai/ha): 0
Plant response rating ([14]; 250 g ai/ha): 5
Plant response rating ([15]; 31 g ai/ha): 0
Plant response rating ([15]; 62 g ai/ha): 5
Plant response rating ([15]; 125 g ai/ha): 60
Plant response rating ([15]; 250 g ai/ha): 85
Plant response rating ([16]; 31 g ai/ha): 0
Plant response rating ([16]; 62 g ai/ha): 5
Plant response rating ([16]; 125 g ai/ha): 0
Plant response rating ([16]; 250 g ai/ha): 5
Plant response rating ([17]; 31 g ai/ha): 0
Plant response rating ([17]; 62 g ai/ha): 0
Plant response rating ([17]; 125 g ai/ha): 0
Plant response rating ([17]; 250 g ai/ha): 5
Plant response rating (kochia (Kochia scoparia); 31 g ai/ha): 0
Plant response rating (kochia (Kochia scoparia); 62 g ai/ha): 0
Plant response rating (kochia (Kochia scoparia); 125 g ai/ha): 0
Plant response rating (kochia (Kochia scoparia); 250 g ai/ha): 0

O=C1NCCC(c2cccc(C(F)(F)F)c2)C1C(=O)Nc1ccccc1Cl (racemic) [Compound 17]
Plant response rating ([11]; 31 g ai/ha): 0
Plant response rating ([11]; 62 g ai/ha): 0
Plant response rating ([11]; 125 g ai/ha): 0
Plant response rating ([11]; 250 g ai/ha): 0
Plant response rating ([12]; 31 g ai/ha): 0
Plant response rating ([12]; 62 g ai/ha): 5
Plant response rating ([12]; 125 g ai/ha): 5
Plant response rating ([12]; 250 g ai/ha): 5
Plant response rating ([13]; 31 g ai/ha): 0
Plant response rating ([13]; 62 g ai/ha): 0
Plant response rating ([13]; 125 g ai/ha): 0
Plant response rating ([13]; 250 g ai/ha): 0
Plant response rating ([14]; 31 g ai/ha): 0
Plant response rating ([14]; 62 g ai/ha): 0
Plant response rating ([14]; 125 g ai/ha): 0
Plant response rating ([14]; 250 g ai/ha): 0
Plant response rating ([15]; 31 g ai/ha): 0
Plant response rating ([15]; 62 g ai/ha): 0
Plant response rating ([15]; 125 g ai/ha): 5
Plant response rating ([15]; 250 g ai/ha): 50
Plant response rating ([16]; 31 g ai/ha): 0
Plant response rating ([16]; 62 g ai/ha): 0
Plant response rating ([16]; 125 g ai/ha): 0
Plant response rating ([16]; 250 g ai/ha): 0
Plant response rating ([17]; 31 g ai/ha): 0
Plant response rating ([17]; 62 g ai/ha): 0
Plant response rating ([17]; 125 g ai/ha): 0
Plant response rating ([17]; 250 g ai/ha): 5
Plant response rating (kochia (Kochia scoparia); 31 g ai/ha): 0
Plant response rating (kochia (Kochia scoparia); 62 g ai/ha): 0
Plant response rating (kochia (Kochia scoparia); 125 g ai/ha): 0
Plant response rating (kochia (Kochia scoparia); 250 g ai/ha): 0

O=C1NCCC(c2cccc(C(F)(F)F)c2)C1C(=O)Nc1ccc(F)c(F)c1F (racemic) [Compound 28]
Plant response rating ([5]; 31 g ai/ha): 35
Plant response rating ([5]; 62 g ai/ha): 40
Plant response rating ([5]; 125 g ai/ha): 70
Plant response rating ([5]; 250 g ai/ha): 90
Plant response rating ([6]; 31 g ai/ha): 0
Plant response rating ([7]; 31 g ai/ha): 80
Plant response rating ([7]; 62 g ai/ha): 85
Plant response rating ([7]; 125 g ai/ha): 90
Plant response rating ([7]; 250 g ai/ha): 90
Plant response rating ([8]; 125 g ai/ha): 0
Plant response rating (soybean (Glycine max); 31 g ai/ha): 0
Plant response rating (soybean (Glycine max); 62 g ai/ha): 0
Plant response rating (soybean (Glycine max); 125 g ai/ha): 0
Plant response rating (soybean (Glycine max); 250 g ai/ha): 0
Plant response rating ([9]; 31 g ai/ha): 60
Plant response rating ([9]; 62 g ai/ha): 75
Plant response rating ([9]; 125 g ai/ha): 90
Plant response rating ([9]; 250 g ai/ha): 95
Plant response rating ([10]; 31 g ai/ha): 0
Plant response rating ([10]; 125 g ai/ha): 0
Plant response rating ([10]; 250 g ai/ha): 60
